One molecule from ChEMBL document CHEMBL1629647, “Preclinical evaluation of GS-9160, a novel inhibitor of human immunodeficiency virus type 1 integrase” (Antimicrob Agents Chemother, 2009) can be followed below.

Data set [1] deals with Human immunodeficiency virus 1. In words: Antiviral activity against 0.001 MOI HIV1 BAL infected in human T lymphocyte cells by p24 antigen ELISA in presence of 10% FBS. Type of data set: functional, organism-based. The note with it: Human immunodeficiency virus 1, BAL. (In general: An ELISA detects its analyte on a solid surface through an enzyme-linked reagent.)
Data set [2] concerns Human immunodeficiency virus 1. In words: Antiviral activity against 0.02 MOI HIV1 3B infected in human MT-2 cells by two fold dilution method in presence of 100% human serum. Type of data set: functional, organism-based. The note with it: Human immunodeficiency virus 1, 3B, MT2.
For data set [3], the system named is Human immunodeficiency virus 1. In words: Antiviral activity against 0.01 MOI HIV1 3B infected in human MT-2 cells by two fold dilution method in presence of 100% human serum. Format: functional, organism-based. The note with it: Human immunodeficiency virus 1, 3B, MT2.
Data set [4] deals with Human immunodeficiency virus 1. As to the kind of experiment: Antiviral activity against HIV1 3B infected in human MT-2 cells by two fold dilution method in presence of 10% FBS, HSA and alpha1-AGP. Type of data set: functional, organism-based. Conditions: Human immunodeficiency virus 1, 3B, MT2.
Data set [5] relates to Human immunodeficiency virus 1. In words: Antiviral activity against 0.001 MOI HIV1 BAL infected in human T lymphocyte cells by p24 antigen ELISA in presence of 10% FBS, HSA and alpha1-AGP. Format: functional, organism-based. The note with it: Human immunodeficiency virus 1, BAL.
Data set [6] has as its system Human immunodeficiency virus 1. In words: Antiviral activity against HIV1 3B infected in human MT-4 cells by two fold dilution method in presence of 10% FBS. The note with it: Human immunodeficiency virus 1, 3B, MT4. Type of data set: functional, organism-based.
The subject of data set [7] is Human immunodeficiency virus 1. In words: Antiviral activity against HIV1 infected in SupT1 cells assessed as accumulation of integrated junction products after 48 hrs by Alu-PCR assay. Type of data set: functional, organism-based. Conditions: Human immunodeficiency virus 1, SUP-T1, 48 h.
The test system of data set [8] is Human immunodeficiency virus 1. In words: Antiviral activity against HIV1 3B infected in SupT1 cells assessed as fold increase in viral 2-LTR circles accumulation after […] postinfection by TaqMan real-time PCR. Type of data set: functional, SUP-T1. A general note: Real-time PCR tracks product formation cycle by cycle.
The nature of data set [9]: Cytotoxicity against human SupT1 cells infected with HIV1 3B. Format: cell-based, SUP-T1. The note with it: SupT1 cells infected with HIV-1 3B.
The test system of data set [10] is Human immunodeficiency virus 1. As to the kind of experiment: Antiviral activity against 0.04 MOI HIV1 3B infected in human MT-2 cells by […] dilution method in presence of 100% human serum. The note with it: Human immunodeficiency virus 1, 3B, MT2.
A short description of data set [11]: Cytotoxicity against human MT4 cells infected with HIV1 3B by three fold dilution method in presence of 10% FBS. Format: cell-based. The note with it: MT4 cells infected with HIV-1 3B.
Data set [12] in a line: Cytotoxicity against human T lymphocyte cells uninfected by XTT method in presence of 10% FBS.
Data set [13] deals with Human immunodeficiency virus 1. In words: Antiviral activity against HIV1 infected in SupT1 cells assessed as accumulation of late RT products after 12 hrs. Format: functional, organism-based. Conditions: Human immunodeficiency virus 1, SUP-T1, 12 h.
Data set [14] is described as follows: Cytotoxicity against human uninfected MT2 cells by three fold dilution method in presence of 10% FBS.
For data set [15], the system named is Human immunodeficiency virus 1. As to the kind of experiment: Antiviral activity against HIV1 3B infected in human MT-2 cells by two fold dilution method in presence of 10% FBS. Format: functional, organism-based. Conditions: Human immunodeficiency virus 1, 3B, MT2.

One may read the EC50 as the midpoint of the concentration-response curve. Usually CC50 stands for the concentration giving 50% cytotoxicity.

Each structure is given as a SMILES string.

With `COc1cc2c(cc1Cc1cccc(Cl)c1F)c(=O)c(C(=O)O)cn2[C@@H](CO)C(C)C`, the 50% effective concentration (EC50) in data set [1] turned out to be 0.2 nM; in data set [2] it was 121 nM; in data set [3], 83 nM; in [4], 24 nM; in [5] it was 16 nM; in data set [6] it was 0.17 nM. The EC50 in [7] is 0.3 nM; in [10], 207 nM; in [13], > 1000 nM; in data set [15] it was 0.6 nM. For the same molecule, the “fold change (FC)” value in data set [8] is given as 2.3. The 50% cytotoxic concentration (CC50) turned out to be 5300 nM in data set [9], 4000 nM in data set [11], 40000 nM in data set [12] and 8000 nM in [14].
